Measurements as given in patent publication US20110092517A1, “Use of PPAR Delta Ligands for the Treatment or Prevention of Inflammation or Energy Metabolism/Production Related Diseases” (Cerenis Therapeutics S.A. & Nippon Chemiphar Co., Ltd., priority 2009, published 2011).
Substitutions are numbered along the chain they refer to. Where “and” joins values, the source holds several entries; their conditions need not be identical. Identical values can stand only once. Like-named read-outs stand apart in the source and are kept apart here.

Experiments:
[1] = test system: Tibialis-anterior muscle fibers; assay: Histochemical staining for succinate dehydrogenase (SDH) of tibialis-anterior muscle, quantification of oxidative fibers; type: in vivo, rat; conditions: for Biopsis #1 Non-oxydative fibers (pixels) / Biopsis #1 oxydative fibers (% from total pixels) / Biopsis #1 oxydative fibers (pixels) / Biopsis #2 Non-oxydative fibers (pixels) / Biopsis #2 oxydative fibers (% from total pixels) / Biopsis #2 oxydative fibers (pixels): rat tibialis-anterior, individual animals
Experimental: The muscle fibers on a set of animals that were treated with the compound 1.1 at the doses of 3 or 10 mg/kg once a day for 3 weeks are analyzed. Tibialis-anterior from 3 animals per group were used for both morpho-histology analysis and molecular analysis of specific markers of mitochondrial activities. The histology analysis was preformed on cryosection followed by a histochemical staining for succinate dehydrogenase (SDH) (Luquet S. et al., FASEB J, 2003. 17(15): p. 2299-301). Two biopsies of each muscle samples were generated and analyzed.
The quantification was performed by using Adobe Photoshop software (Lehr et al. Histochem Cytochem, 1997. 45(11): p. 1559-65, J Histochem Cytochem, 1999. 47(1): p. 119-26), and was based on pictures (in TIFF format) obtained from different slides of muscle (Tibialis-Anterior).
For each picture identical areas of about 57000 pixels at similar magnification were selected and the surface occupied by the stained fibers was measured (FIG. 1). The results are expressed as the percentage of the area of highly-stained and moderately-stain fibers from the total area selected. The analysis is performed in a blinded fashion.
Statistical analysis (Prism-Graphpad) was performed using unpaired T-test with: * corresponding to p<0.05 and ** to p<0.01.

mouse PPARα = target: T1, mouse PPARα (Mus musculus, UniProt P23204); assay: GAL4-PPAR chimera transactivation assay in CV-1 cells at 10% or 0.1% serum (Example 4); type: cell-based; conditions: read-out: GAL4-chimera (mouse) EC50 (μM) hPPARα
T1 construct: amino acids 167-468 for hs and m; expressed in transfected cells; host or cells: CV-1
T1 sequence (P23204 167-468): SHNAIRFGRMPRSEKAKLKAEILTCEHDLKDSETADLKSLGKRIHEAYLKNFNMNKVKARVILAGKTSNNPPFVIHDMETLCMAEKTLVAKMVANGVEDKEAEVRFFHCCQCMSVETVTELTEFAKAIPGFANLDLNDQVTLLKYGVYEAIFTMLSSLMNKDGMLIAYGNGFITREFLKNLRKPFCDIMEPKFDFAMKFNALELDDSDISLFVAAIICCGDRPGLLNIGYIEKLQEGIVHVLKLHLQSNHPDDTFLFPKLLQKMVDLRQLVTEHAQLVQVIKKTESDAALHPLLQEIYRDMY

mouse PPARδ = target: T2, mouse PPARδ (Mus musculus, UniProt P35396); assay: as above; type: cell-based; conditions: read-out: GAL4-chimera (mouse) EC50 (μM) hPPARδ
T2 construct: amino acids 139-440 for m; expressed in transfected cells; host or cells: CV-1
T2 sequence (P35396 139-440): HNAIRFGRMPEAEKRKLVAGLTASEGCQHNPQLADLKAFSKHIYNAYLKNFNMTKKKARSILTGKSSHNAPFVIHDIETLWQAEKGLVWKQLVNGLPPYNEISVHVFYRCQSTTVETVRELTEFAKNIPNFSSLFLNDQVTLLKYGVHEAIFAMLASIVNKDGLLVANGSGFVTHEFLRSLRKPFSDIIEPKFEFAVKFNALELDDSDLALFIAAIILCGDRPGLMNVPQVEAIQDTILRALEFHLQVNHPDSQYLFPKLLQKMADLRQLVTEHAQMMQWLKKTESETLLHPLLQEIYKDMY

rat PPARγ = target: T3, rat PPARγ (Rattus norvegicus, UniProt O88275); assay: as above; type: cell-based; conditions: read-out: GAL4-chimera (rat) EC50 (μM) hPPARγ
T3 construct: expressed in transfected cells; host or cells: CV-1
T3 sequence (O88275 238-503 limits assumed): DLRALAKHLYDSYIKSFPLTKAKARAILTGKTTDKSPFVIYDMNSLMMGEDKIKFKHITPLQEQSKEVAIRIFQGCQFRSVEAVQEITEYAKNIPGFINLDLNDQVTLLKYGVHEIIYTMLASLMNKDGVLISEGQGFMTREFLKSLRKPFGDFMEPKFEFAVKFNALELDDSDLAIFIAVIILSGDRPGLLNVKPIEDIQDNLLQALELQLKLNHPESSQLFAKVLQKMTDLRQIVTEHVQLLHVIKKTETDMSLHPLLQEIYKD

rat PPARδ = target: T4, rat PPARδ (Rattus norvegicus, UniProt Q62879); assay: as above; type: cell-based; conditions: read-out: GAL4-chimera (rat) EC50 (μM) hPPARδ
T4 construct: expressed in transfected cells; host or cells: CV-1
T4 sequence (Q62879 139-440 limits assumed): T2 sequence (P35396 139-440) with H29Q, V73I, L96P, L181I, D205V, R240Q
Experimental: Assays were performed in triplicate for GAL4-chimeras. Experiments were repeated at least three times.
The EC50 were calculated as previously described.
The transactivation activities of the compound I.1 and GW501516 are measured in rat and mouse transactivation assays at 10% and 0.1% serum (Tables 11 and 12).

[2] = Body weight follow-up during treatment in rats fed a high fat/medium fructose diet (WD); type: in vivo, rat; conditions: oral once daily
Text: The first set of rats was undergoing an OGTT after 3 weeks of treatment (half rats/group of the clamp arm) and the second set was also undergoing an OGTT after 3 weeks of treatment (half rats/group of clamp arm) and the Histology study (3 rats/group). […] Homogenous mild obese and insulin resistant rats were allocated into the different treatment groups and western diet was continued until the end of the experiment. Given that, the 2 series started with a gap of one week Dosage regimen: Rats were treated once daily via the oral route, in the morning. The duration of the treatment was between 5 and 5.5 weeks. […], 10 mg/Kg (n=12) […] The second set of rats was weighted at 8:30 on days 17 and 21, at 1:45 pm on day 24 and at 11:10 am on day 28.

[3] = 3 mg/kg once a day for 3 weeks, listed as COMP.I.1, 3 mg/kg
[4] = 10 mg/kg once a day for 3 weeks
[5] = 10 mg/kg once a day for 3 weeks, listed as COMP.I.1, 10 mg/kg

## Cc1cc(C(=O)CCc2sc(-c3ccc(C(F)(F)F)cc3)nc2C(C)C)ccc1OCC(=O)O [compound I.1, 4-[3-[4-Isopropyl-2-[4-(trifluoromethyl)phenyl]-5-thiazolyl]propionyl]-2-methylphenoxyacetic acid]
[1]; WD fed rats, SDH histology, dose not specified
  Increase of the number of oxidative fiber in tibialis muscle: about 50%
[1]; [3]
  Biopsis #1 Non-oxydative fibers (pixels): 15343 pixels and 16157 pixels and 27185 pixels
  Biopsis #1 oxydative fibers (% from total pixels): 73.56 % from total pixels and 72.16 % from total pixels and 51.41 % from total pixels
  Biopsis #1 oxydative fibers (pixels): 42685 pixels and 41871 pixels and 28767 pixels
  Biopsis #2 Non-oxydative fibers (pixels): 16208 pixels and 1109 pixels and 16402 pixels
  Biopsis #2 oxydative fibers (% from total pixels): 72.07 % from total pixels and 81.01 % from total pixels and 69.92 % from total pixels
  Biopsis #2 oxydative fibers (pixels): 41820 pixels and 47009 pixels and 38128 pixels
[1]; [4]
  Biopsis #2 Non-oxydative fibers (pixels): 9243 pixels
  Biopsis #2 oxydative fibers (% from total pixels): 83.06 % from total pixels
  Biopsis #2 oxydative fibers (pixels): 45326 pixels
[1]; [5]
  Biopsis #1 Non-oxydative fibers (pixels): 18992 pixels and 27170 pixels and 16958 pixels
  Biopsis #1 oxydative fibers (% from total pixels): 68.84 % from total pixels and 52.66 % from total pixels and 70.78 % from total pixels
  Biopsis #1 oxydative fibers (pixels): 35030 pixels and 30218 pixels and 41070 pixels
Mouse PPARα; 0.1% serum
  EC50: > 10 µM
Mouse PPARα; 10% serum
  EC50: > 10 µM
Mouse PPARδ; 0.1% serum
  EC50: 0.065 ± 0.001 µM
Mouse PPARδ; 10% serum
  EC50: 0.327 ± 0.07 µM
Rat PPARγ; 0.1% serum
  EC50: > 10 µM
Rat PPARγ; 10% serum
  EC50: > 10 µM
Rat PPARδ; 0.1% serum
  EC50: 0.118 ± 0.031 µM
Rat PPARδ; 10% serum
  EC50: 0.692 ± 0.177 µM
[2]; compound I.1 3 mg/kg (alone or +metformin 50 mg/kg)
  Body weight / body weight gain during treatment: did not affect body weight gain
[2]; pioglitazone 10, metformin 50, GW501516 10, compound I.1 10 mg/kg (alone or +metformin 50 mg/kg)
  Body weight / body weight gain during treatment: decreased thereafter body weight gain, until a significant effect after 4 weeks of treatment
